Assay results from patent publication US20230085307A1, “PYRIDAZINONE COMPOUND AND HERBICIDE” (NISSAN CHEMICAL CORPORATION, priority 2019, published 2023).

How the values were obtained:
[1] = tested on: rice flat sedge; assay: Test Example 3: herbicidal effect by foliage application, Wagner pot (Table 18, symbol E); type: in vivo, rice flat sedge (Cyperus iria)
Outline: (§1)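 Plants were sown in alluvial soil held under 0.1–0.5 cm standing water and grown 14 days in a greenhouse at 25–30 °C. An emulsifiable formulation, water-diluted to the set dose, was then sprayed onto the foliage, and effects were scored three weeks later using previously defined criteria.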

[2] = tested on: wild oat; assay: Test Example 4: herbicidal effect by soil treatment (Table 19, symbol I); type: in vivo, wild oat (Avena fatua); details: amount of applied herbicide 320 g/ha
Outline: (§2)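 Herbicidal effect was rated 3 weeks after treatment, using the scoring criteria of an earlier test. The compound, formulated as an emulsion and diluted in water to a set herbicide amount, had been sprayed uniformly on soil over freshly sown seeds. Growth took place in a greenhouse at 25° C. to 30° C.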

[3] = tested on: oval-leafed pondweed; assay: Test Example 1: herbicidal activity, application before weed generation under submerged conditions (Table 16, symbol C); type: in vivo, oval-leafed pondweed (Monochoria vaginalis)
Outline: (§3)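 Submerged Wagner pots (alluvial soil, 4 cm water) sown with weed seeds and planted with 2.5-leaf rice seedlings; emulsifiable concentrate diluted in water applied to water surface on sowing day. Held in greenhouse at 25-30 °C; injury scored 0-5 by herbicidal rate after three weeks.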

[4] = tested on: velvetleaf; assay: Test Example 4: herbicidal effect by soil treatment (Table 19, symbol M); type: in vivo, velvetleaf (Abutilon theophrasti); details: amount of applied herbicide 320 g/ha
Outline: as §2

[5] = tested on: Japanese bulrush; assay: Test Example 1: herbicidal activity, application before weed generation under submerged conditions (Table 16, symbol B); type: in vivo, Japanese bulrush (Schoenoplectus juncoides)
Outline: as §3

[6] = tested on: barnyard grass; assay: Test Example 4: herbicidal effect by soil treatment (Table 19, symbol H); type: in vivo, barnyard grass (Echinochloa crus-galli); details: amount of applied herbicide 320 g/ha
Outline: as §2

[7] = tested on: late watergrass; assay: Test Example 1: herbicidal activity, application before weed generation under submerged conditions (Table 16, symbol A); type: in vivo, late watergrass (Echinochloa oryzicola)
Outline: as §3

[8] = tested on: southern crabgrass; assay: Test Example 4: herbicidal effect by soil treatment (Table 19, symbol F); type: in vivo, southern crabgrass (Digitaria ciliaris); details: amount of applied herbicide 320 g/ha
Outline: as §2

[9] = tested on: chickweed; assay: Test Example 4: herbicidal effect by soil treatment (Table 19, symbol P); type: in vivo, common chickweed (Stellaria media); details: amount of applied herbicide 320 g/ha
Outline: as §2

[10] = tested on: green foxtail; assay: Test Example 4: herbicidal effect by soil treatment (Table 19, symbol G); type: in vivo, green foxtail (Setaria viridis); details: amount of applied herbicide 320 g/ha
Outline: as §2

[11] = tested on: persian speedwell; assay: Test Example 4: herbicidal effect by soil treatment (Table 19, symbol R); type: in vivo, Persian speedwell (Veronica persica); details: amount of applied herbicide 320 g/ha
Outline: as §2

[12] = tested on: windgrass; assay: Test Example 4: herbicidal effect by soil treatment (Table 19, symbol L); type: in vivo, windgrass (Apera spica-venti); details: amount of applied herbicide 320 g/ha
Outline: as §2

[13] = tested on: blackgrass; assay: Test Example 4: herbicidal effect by soil treatment (Table 19, symbol J); type: in vivo, blackgrass (Alopecurus myosuroides); details: amount of applied herbicide 320 g/ha
Outline: as §2

[14] = tested on: lambsquarters; assay: Test Example 4: herbicidal effect by soil treatment (Table 19, symbol O); type: in vivo, lambsquarters (Chenopodium album); details: amount of applied herbicide 320 g/ha
Outline: as §2

[15] = tested on: barnyard grass; assay: Test Example 3: herbicidal effect by foliage application, Wagner pot (Table 18, symbol H); type: in vivo, barnyard grass (Echinochloa crus-galli)
Outline: as §1

[16] = tested on: redroot pigweed; assay: Test Example 4: herbicidal effect by soil treatment (Table 19, symbol N); type: in vivo, redroot pigweed (Amaranthus retroflexus); details: amount of applied herbicide 320 g/ha
Outline: as §2

[17] = tested on: Chinese sprangletop; assay: Test Example 3: herbicidal effect by foliage application, Wagner pot (Table 18, symbol D); type: in vivo, chinese sprangletop (Leptochloa chinensis)
Outline: as §1

[18] = tested on: Italian ryegrass; assay: Test Example 4: herbicidal effect by soil treatment (Table 19, symbol K); type: in vivo, Italian ryegrass (Lolium multiflorum); details: amount of applied herbicide 320 g/ha
Outline: as §2

[19] = tested on: persian speedwell; assay: Test Example 5: herbicidal effect by foliage application, plastic box (Table 20, symbol R); type: in vivo, Persian speedwell (Veronica persica); details: amount of applied herbicide 320 g/ha; foliage application after 14-day growth; evaluated three weeks after application
Outline: (§4)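 Foliar spray test: emulsion formulation diluted in water to a set application rate, sprayed onto 14-day-old plants raised in diluvial soil at 25° C to 30° C under glass. Both herbicidal effect and crop effect rated visually three weeks later.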

[20] = tested on: southern crabgrass; assay: Test Example 5: herbicidal effect by foliage application, plastic box (Table 20, symbol F); type: in vivo, southern crabgrass (Digitaria ciliaris); details: amount of applied herbicide 320 g/ha; foliage application after 14-day growth; evaluated three weeks after application
Outline: as §4

[21] = tested on: blackgrass; assay: Test Example 5: herbicidal effect by foliage application, plastic box (Table 20, symbol J); type: in vivo, blackgrass (Alopecurus myosuroides); details: amount of applied herbicide 320 g/ha; foliage application after 14-day growth; evaluated three weeks after application
Outline: as §4

[22] = tested on: chickweed; assay: Test Example 5: herbicidal effect by foliage application, plastic box (Table 20, symbol P); type: in vivo, common chickweed (Stellaria media); details: amount of applied herbicide 320 g/ha; foliage application after 14-day growth; evaluated three weeks after application
Outline: as §4

[23] = tested on: green foxtail; assay: Test Example 5: herbicidal effect by foliage application, plastic box (Table 20, symbol G); type: in vivo, green foxtail (Setaria viridis); details: amount of applied herbicide 320 g/ha; foliage application after 14-day growth; evaluated three weeks after application
Outline: as §4

[24] = tested on: lambsquarters; assay: Test Example 5: herbicidal effect by foliage application, plastic box (Table 20, symbol O); type: in vivo, lambsquarters (Chenopodium album); details: amount of applied herbicide 320 g/ha; foliage application after 14-day growth; evaluated three weeks after application
Outline: as §4

[25] = tested on: barnyard grass; assay: Test Example 5: herbicidal effect by foliage application, plastic box (Table 20, symbol H); type: in vivo, barnyard grass (Echinochloa crus-galli); details: amount of applied herbicide 320 g/ha; foliage application after 14-day growth; evaluated three weeks after application
Outline: as §4

[26] = tested on: velvetleaf; assay: Test Example 5: herbicidal effect by foliage application, plastic box (Table 20, symbol M); type: in vivo, velvetleaf (Abutilon theophrasti); details: amount of applied herbicide 320 g/ha; foliage application after 14-day growth; evaluated three weeks after application
Outline: as §4

[27] = tested on: redroot pigweed; assay: Test Example 5: herbicidal effect by foliage application, plastic box (Table 20, symbol N); type: in vivo, redroot pigweed (Amaranthus retroflexus); details: amount of applied herbicide 320 g/ha; foliage application after 14-day growth; evaluated three weeks after application
Outline: as §4

[28] = tested on: windgrass; assay: Test Example 5: herbicidal effect by foliage application, plastic box (Table 20, symbol L); type: in vivo, windgrass (Apera spica-venti); details: amount of applied herbicide 320 g/ha; foliage application after 14-day growth; evaluated three weeks after application
Outline: as §4

[29] = tested on: wild oat; assay: Test Example 5: herbicidal effect by foliage application, plastic box (Table 20, symbol I); type: in vivo, wild oat (Avena fatua); details: amount of applied herbicide 320 g/ha; foliage application after 14-day growth; evaluated three weeks after application
Outline: as §4

[30] = tested on: Italian ryegrass; assay: Test Example 5: herbicidal effect by foliage application, plastic box (Table 20, symbol K); type: in vivo, Italian ryegrass (Lolium multiflorum); details: amount of applied herbicide 320 g/ha; foliage application after 14-day growth; evaluated three weeks after application
Outline: as §4

[31] = amount of applied herbicide 320 g/ha

`CCCC(=O)Oc1c(C)nn(C)c(=O)c1-c1c(-c2ccc(Cl)cc2OC)sc2ccc(F)cc12` [2-369] was tested, and the “herbicidal effect on E: rice flat sedge” value [1, 31] was 4 (Herbicidal rate of 70% or more and less than 90%), the “herbicidal effect, I: wild oat” value [2] was 0 (Herbicidal rate of 5% or less (almost no effect)) and the “Herbicidal effect on C: oval-leafed pondweed (grade 0-5)” value ([3]; 320 g/ha applied herbicide) was 2 (Herbicidal rate of 20% or more and less than 40%). The “herbicidal effect, M: velvetleaf” value [4] was 0 (Herbicidal rate of 5% or less (almost no effect)), the “Herbicidal effect on B: Japanese bulrush (grade 0-5)” value ([5]; 320 g/ha applied herbicide) was 0 (Herbicidal rate of 5% or less (almost no effect)) and the “herbicidal effect, H: barnyard grass” value [6] was 0 (Herbicidal rate of 5% or less (almost no effect)). For the same compound, the “Herbicidal effect on A: late watergrass (grade 0-5)” value ([7]; 320 g/ha applied herbicide) was 0 (Herbicidal rate of 5% or less (almost no effect)), the “herbicidal effect, F: southern crabgrass” value [8] was 0 (Herbicidal rate of 5% or less (almost no effect)) and the “herbicidal effect, P: chickweed” value [9] was 0 (Herbicidal rate of 5% or less (almost no effect)). For the same compound, the “herbicidal effect, G: green foxtail” value [10] was 0 (Herbicidal rate of 5% or less (almost no effect)), the “herbicidal effect, R: persian speedwell” value [11] was 0 (Herbicidal rate of 5% or less (almost no effect)) and the “herbicidal effect, L: windgrass” value [12] was 3 (Herbicidal rate of 40% or more and less than 70%). For the same compound, the “herbicidal effect, J: blackgrass” value [13] was 0 (Herbicidal rate of 5% or less (almost no effect)), the “herbicidal effect, O: lambsquarters” value [14] was 0 (Herbicidal rate of 5% or less (almost no effect)) and the “herbicidal effect on H: barnyard grass” value [15, 31] was 4 (Herbicidal rate of 70% or more and less than 90%). For the same compound, the “herbicidal effect, N: redroot pigweed” value [16] was 0 (Herbicidal rate of 5% or less (almost no effect)), the “herbicidal effect on D: Chinese sprangletop” value [17, 31] was 5 (Herbicidal rate of 90% or more (almost completely withered)) and the “herbicidal effect, K: Italian ryegrass” value [18] was 0 (Herbicidal rate of 5% or less (almost no effect)).

For `CCOc1cc(F)ccc1-c1sc2cc(F)c(F)cc2c1-c1c(O)c(C)nn(C)c1=O` [5-031], the “herbicidal effect on rice flat sedge (E)” value ([1]; 320 g/ha) was 5 (Herbicidal rate of 90% or more (almost completely withered)), the “I: wild oat, herbicidal effect grade” value [2] was 1 (Herbicidal rate of 5% or more and less than 20%) and the “Herbicidal effect by foliage application, R: persian speedwell” value [19] was 5 (Herbicidal rate of 90% or more (almost completely withered)). The “Herbicidal effect, C: oval-leafed pondweed” value [3, 31] was 0 (Herbicidal rate of 5% or less (almost no effect)), the “M: velvetleaf, herbicidal effect grade” value [4] was 4 (Herbicidal rate of 70% or more and less than 90%) and the “Herbicidal effect, B: Japanese bulrush” value [5, 31] was 0 (Herbicidal rate of 5% or less (almost no effect)). The “Herbicidal effect by foliage application, F: southern crabgrass” value [20] was 5 (Herbicidal rate of 90% or more (almost completely withered)), the “H: barnyard grass, herbicidal effect grade” value [6] was 3 (Herbicidal rate of 40% or more and less than 70%) and the “Herbicidal effect, A: late watergrass” value [7, 31] was 2 (Herbicidal rate of 20% or more and less than 40%). The “F: southern crabgrass, herbicidal effect grade” value [8] was 4 (Herbicidal rate of 70% or more and less than 90%), the “P: chickweed, herbicidal effect grade” value [9] was 3 (Herbicidal rate of 40% or more and less than 70%) and the “G: green foxtail, herbicidal effect grade” value [10] was 5 (Herbicidal rate of 90% or more (almost completely withered)). For the same compound, the “Herbicidal effect by foliage application, J: blackgrass” value [21] was 5 (Herbicidal rate of 90% or more (almost completely withered)), the “L: windgrass, herbicidal effect grade” value [12] was 5 (Herbicidal rate of 90% or more (almost completely withered)) and the “J: blackgrass, herbicidal effect grade” value [13] was 3 (Herbicidal rate of 40% or more and less than 70%). For the same compound, the “Herbicidal effect by foliage application, P: chickweed” value [22] was 5 (Herbicidal rate of 90% or more (almost completely withered)), the “Herbicidal effect by foliage application, G: green foxtail” value [23] was 5 (Herbicidal rate of 90% or more (almost completely withered)) and the “O: lambsquarters, herbicidal effect grade” value [14] was 5 (Herbicidal rate of 90% or more (almost completely withered)). For the same compound, the “Herbicidal effect by foliage application, O: lambsquarters” value [24] was 5 (Herbicidal rate of 90% or more (almost completely withered)), the “Herbicidal effect by foliage application, H: barnyard grass” value [25] was 5 (Herbicidal rate of 90% or more (almost completely withered)) and the “Herbicidal effect by foliage application, M: velvetleaf” value [26] was 5 (Herbicidal rate of 90% or more (almost completely withered)). For the same compound, the “herbicidal effect on barnyard grass (H)” value ([15]; 320 g/ha) was 5 (Herbicidal rate of 90% or more (almost completely withered)), the “Herbicidal effect by foliage application, N: redroot pigweed” value [27] was 5 (Herbicidal rate of 90% or more (almost completely withered)) and the “Herbicidal effect by foliage application, L: windgrass” value [28] was 5 (Herbicidal rate of 90% or more (almost completely withered)). For the same compound, the “N: redroot pigweed, herbicidal effect grade” value [16] was 5 (Herbicidal rate of 90% or more (almost completely withered)), the “Herbicidal effect by foliage application, I: wild oat” value [29] was 4 (Herbicidal rate of 70% or more and less than 90%) and the “herbicidal effect on Chinese sprangletop (D)” value ([17]; 320 g/ha) was 4 (Herbicidal rate of 70% or more and less than 90%). The “K: Italian ryegrass, herbicidal effect grade” value [18] was 0 (Herbicidal rate of 5% or less (almost no effect)) and the “Herbicidal effect by foliage application, K: Italian ryegrass” value [30] was 2 (Herbicidal rate of 20% or more and less than 40%).
